Data published in patent US20090305955A1, “Cyclopeptide with Anti-Cancer Activity Derived from Collagen Type IV” (priority 2006, published 2009).
Where a SMILES comes first, the peptide text is derived from it.

Key:
[1] = tested on: B16F1 murine melanoma cells; assay: Measurement of in vivo tumour growth, pre-incubated B16F1 cells injected s.c.; design: species or system C57BL6 mice; settings: day 20; for in vivo tumour growth: B16F1 cells pre-incubated 15 minutes with 20 μM peptide, s.c. in C57BL6 mice
Method: FIG. 16: In vivo tumour growth in the presence of YSNSG (SEQ ID NO: 3) cyclopeptide. B16F1 cells were incubated for 15 minutes with a control medium (negative control, white diamonds), with the linear heptapeptide CNYYSNS (SEQ ID NO: 5) (20 μM) (positive control, black diamonds) or with the cyclopeptide YSNSG (SEQ ID NO: 3) at a concentration of 20 μM (grey diamonds), then injected subcutaneously into syngenic C57BL6 mice (2.5×10^5 cells per mouse). The tumour volume was measured on the 20th day;
Female C57BL6 mice (mean body weight 18 to 20 g) were purchased from Harlan France (Gannat, France). The animals were placed in individual cages at a constant temperature and humidity; food and water were supplied ad libitum. All of the mice underwent a 1 week acclimatization period before commencing the experiments. The in vivo experiments were carried out in accordance with the recommendations of the Centre National de la recherché Scientifique (CNRS, National Centre for Scientific Research).
A suspension of B16F1 cells (2.5×10^5 cells in RPMI 1640 medium) which may or may not have been pre-treated with the cyclopeptide YSNSG (SEQ ID NO: 3) (20 μM) was injected subcutaneously into the left flank of syngenic mice from a different series. The mice were sacrificed on day 20 and the tumour size was measured. The volume of the tumours was determined by the relationship V=½A×B^2 in which A and B respectively represent the largest and the smallest dimension of the tumour (Wald et al).

MMP-9 = assay: Zymography in the presence of gelatine, conditioned medium of UACC-903 cells; format: cell-based, human; settings: cyclopeptide 5 to 20 μM, linear heptapeptide 20 μM
Method: (§1) FIG. 11: Effect of YSNSG (SEQ ID NO: 3) cyclopeptide on secretion of MMP-2 and MMP-9. The secretion of MMP-2 and MMP-9 was analyzed by zymography in the presence of gelatine (A), on a medium conditioned by UACC-903 cells in the absence of peptide (negative control, white bar), on cells treated with linear heptapeptide CNYYSNS (SEQ ID NO: 5) (20 μM) (positive control, black bar) or cells treated with concentrations of 5 μM to 20 μM of cyclopeptide (grey bars) YSNSG (SEQ ID NO: 3). The conditioned medium was collected and analyzed as described in the method. Quantification was carried out using Bio 1D software. B: quantification of proMMP2; C: quantification of proMMP-9 (A.U.: arbitrary unit);
(§2) The expression of MMP-2 and MMP-9 in a conditioned medium of UACC-903 cells, treated or not treated with synthetic peptides, was analyzed by zymography in the presence of gelatine as described above (Pasco et al, 2000(a)). The secretion of TIMP-2 was analyzed in a conditioned medium of UACC-903 cells by reverse zymography in the presence of gelatine, as described above (Pascal et al, 2000(a)).

MMP-2 = assay: as above; format: cell-based, human; settings: cyclopeptide 5 to 20 μM, linear heptapeptide 20 μM
Method: as §1, §2

MMP-14 = assay: Western blot of proMMP-14 / MMP-14, UACC-903 cells; format: cell-based, human; settings: 20 μM
Method: FIG. 12: Effect of YSNSG (SEQ ID NO: 3) cyclopeptide on expression and activation of MMP-14. Expression of proMMP-14 (white bar) and MMP-14 (black bar) was studied by Western Blot (A) in a medium conditioned by UACC-903 cells in the absence of peptide (control), on cells treated with the linear heptapeptide CNYYSNS (SEQ ID NO: 5) (20 μm) or treated with the cyclopeptide YSNSG (SEQ ID NO: 3) at a concentration of 20 μM (cyclopeptide YSNSG (SEQ ID NO: 3)). The conditioned medium was recovered and analyzed as described in the methods. Quantification was carried out using Bio 1D software. (B);
(§3) The samples underwent 10% polyacrylamide gel electrophoresis in the presence of 0.1% SDS then were transferred onto Immobilon-P membranes (Millipore, St Quentin en Yvelines, France). The membranes were saturated with 5% freeze dried skimmed milk, Tween 20 0.1% in a 50 mM Tris-HCl, 150 mM NaCl buffer, pH 7.5 (TBS) for 2 hours at ambient temperature. The membranes were then incubated overnight at 4° C. with anti-MMP-14, anti-PAI-1 and anti-u-PAR antibodies then incubated for one hour at ambient temperature with a secondary antibody (anti-IgG) conjugated with peroxidase. The immune complexes were visualized with an ECL chemoluminescence detection kit.

u-PAR = assay: Western blot of u-PAR, HUVEC cells; format: cell-based, human; settings: 20 μM
Method: FIG. 21: Effect of YSNSG (SEQ ID NO: 3) cyclopeptide on the expression of the u-PA receptor: u-PAR by HUVEC cells. The secretion of u-PAR was analyzed by Western blot (A) in a medium conditioned by HUVEC cells in the absence (control) or in the presence of 20 μM of the cyclopeptide YSNSG (SEQ ID NO: 3). Quantification was carried out using Bio 1D software (B);
as §3

MT1-MMP = assay: Western blot of proMMP-14 / MMP-14, HUVEC membrane extracts; format: cell-based, human; settings: 20 μM
Method: FIG. 19: Effect of YSNSG (SEQ ID NO: 3) cyclopeptide on expression and activation of MMP-14 by HUVEC cells. The expression of proMMP-14 and MMP-14 was studied by Western blot (A). The HUVEC cells were cultivated in the absence (control) or in the presence of 20 μM of YSNSG (SEQ ID NO: 3) cyclopeptide and the corresponding membrane extracts were analyzed. Quantification was carried out using Bio 1D software (B);
as §3

Compound | in vivo tumour growth [1] | secretion of MMP-9 (MMP-9) | secretion of MMP-2 (MMP-2) | activation of proMMP-14 (MMP-14) | expression of proMMP-14 (MMP-14) | reduction in the production of u-PAR (u-PAR) [%] | reduction in tumour volume ([1]; B16F1 cells pre-treated with 20 μM, no re-injection of peptide, C57BL6 mice) [%] | reduction in the activation of MT1-MMP (MT1-MMP) [%]
CNYYSNS (Synthetic linear heptapeptide) [linear peptide NC1 [α3(IV) 185-191], the 7 N-terminal amino acids of the 185-203 domain; positive control, reference compound] | inhibited tumour growth | No significant change | No significant change | same intensity | same intensity | – | – | –
NC(=O)CC1NC(=O)C(CO)NC(=O)C(Cc2ccc(O)cc2)NC(=O)CNC(=O)C(CO)NC1=O (stereo not shown) [cyclopeptide YSNSG, cyclopeptide YSNSG (SEQ ID NO: 3)] (cyclo(GYSNS); configuration not given here) | inhibited tumour growth | No significant change | No significant change | completely abolished | strongly inhibited | −49 | 46 | 56
